Measured values taken from patent US10004718B2, “Erythropoietin expression promoter” (TOHOKU UNIVERSITY, priority 2012, dated 2018).

Tests used:
[1] = test system: mouse erythropoietin gene promoter; experiment: Luciferase reporter assay of erythropoietin gene promoter in Hep3B cells; type: cell-based; conditions: for effect on erythropoietin gene promoter transcriptional activity compared with HIF activator FG-4592: compound 10 μM vs FG-4592 10 μM, 20% O2; for transcription level of the erythropoietin gene promoter: compound 10 μM, 20% O2, 48 hours, vs 20% O2/DMSO
Procedure: A plasmid vector HE-mPro-luc for luciferase assay on the promoter activity of the 5′ upstream transcriptional regulatory region of the mouse erythropoietin gene was prepared by cleaving, with restriction enzymes XbaI and SacI, a region having a length from −571 to +53 bp starting at the translation initiation site of exon 1 of the mouse erythropoietin gene, and inserting this region to a luciferase reporter vector pXP2 (Nordeen S K. BioTechniques. 6: […], 1988).
The Hep3B cells were adjusted to 10×10^4 cells/well in a 24-well cell culture plate and subcultured. Under microscopy, the Hep3B cells that reached a cell density of 70 to 80% were transfected with the plasmid DNA for luciferase reporter assay. The composition of a solution for transfection was prepared by mixing 2 μg of HE-mPro-luc, 50 ng of pRh-TK (manufactured by Promega K.K.), and 2 μl of Lipofectamine 2000 (manufactured by Invitrogen Corp.) with 100 μl of OptiMEM-I (manufactured by Life Technologies, Inc./GIBCO) per well, followed by incubation at room temperature for 20 minutes. The solution was added to the Hep3B cells in the 24-well cell culture plate preincubated in 0.5 ml of serum-free OptiMEM-I medium, and then incubated for 4 hours without serum and antibiotics under conditions of 37° C. and 5% CO2/20% O2. Then, the medium was replaced with RPMI1640 common medium 1 supplemented with each of 5 types of compounds (compounds #2, 4, 5, 18, and 21) at a concentration of 10 μM, followed by further incubation for 48 hours under conditions of 37° C. and 5% CO2/20% O2. Then, the medium was replaced with 0.5 ml of serum-free PBS, and the cells were gently washed, followed by the removal of PBS by suction. This operation was carried out twice. Then, 100 μl of passive lysis buffer (manufactured by Promega K.K.) was added thereto, and the cells were lysed by mixing at room temperature for 20 minutes. Hep3B cells cultured in the absence of the compound (DMSO added [1%]) (“20% O2/DMSO” of FIG. 3) were used as a negative control. Hep3B cells cultured in the presence of an HIF activator (FG-4592 [10 μM]) (“20% O2/FG4592” of FIG. 3) and Hep3B cells cultured under hypoxia (1% O2) conditions and in the absence of the compound (DMSO added [1%]) (“1% O2/DMSO” of FIG. 3) were used as positive controls.
Dual Luciferase Reporter Assay System (manufactured by Promega K.K.) was used in the luciferase reporter assay. The amounts of firefly and Renilla luciferases were measured using a luminometer Lumat LB9507 (manufactured by BERTHOLD TECHNOLOGIES GmbH & Co. KG). The amount of Fire fly luciferase was divided by the amount of Renilla luciferase to calculate the transcriptional activity of the erythropoietin gene.

[2] = Liver function in mice (plasma GOT, GPT, erythropoietin); type: in vivo, mouse; conditions: oral, 7 consecutive days
Procedure: Compound #4 (10 mg/100 μl of DMSO) (10 μl) and compound #4 (20 mg/100 μl of DMSO) (15 μl) were mixed with 190 μl and 185 μl, respectively, of corn oil to prepare low-concentration (5 μg/ml) compound #4 and high-concentration (15 μg/ml) compound #4 mixed solutions (200 μl each). Each mixed solution (200 μl) was orally administered to each mouse (C57BL/6N 8 W, male, 21-25 g) between 15:00 to 18:00 every day using a sonde. This administration was carried out for 7 consecutive days (n=4). Mice orally given DMSO were used as controls (n=4).
24 hours after the final administration, each mouse was cervically dislocated, and 500 μl of blood was collected from the heart. Then, an anticoagulant (10 μl of heparin) was added thereto, and the resulting blood was centrifuged (12000 rpm×20 min, 4° C.) to isolate plasma. The plasma concentrations of indexes for liver functions (GOT [glutamic oxaloacetic transaminase] and GPT [glutamic pyruvic transaminase]) were measured using Transaminase CII-Test Wako (manufactured by Wako Pure Chemical Industries, Ltd.) to examine the effect of improving liver functions. Also, the plasma concentration ([…]) of erythropoietin was measured using a kit (Quantikine Mouse/Rat Epo Immunoassay, manufactured by R&D Systems, Inc.).

[3] = test system: Hep3B cells; experiment: Cytotoxicity, cell survival rate of Hep3B cells (Cell Counting Kit-8); type: cell-based, human
Procedure: The Hep3B cells were seeded at 1×10^4 cells/well to a 24-well cell culture plate and then cultured under normal oxygen (20% O2) for 24 hours. […] After further culture under normal oxygen (20% O2) for 24 hours, the number of live cells was measured using Cell Counting Kit-8 (manufactured by Dojindo Laboratories) to calculate the survival rate of the cells. Hep3B cells cultured in the absence of the compound (DMSO added [1%]) (“DMSO” of FIG. 9) and Hep3B cells cultured in the presence of HIF activators (DMOG [10 μM] and ciclopirox[10 μM]) (“DMOG” and “Ciclopirox”, respectively, of FIG. 9) were used as controls.

[4] = test system: HIF-α; experiment: HIF-α concentration in Hep3B cells (Total HIF-1α Cell-Based ELISA); parameters: species or system human; conditions: compound 10 μM, 20% O2, 24 hours
Procedure: The Hep3B cells were seeded at 1×10^4 cells/well to a 24-well cell culture plate and then cultured under normal oxygen (20% O2) for 24 hours. Each of 3 types of compounds (compounds #4, 21, and 35) was mixed at a concentration of 10 μM into RPMI1640 common medium 1. After further culture under normal oxygen (20% O2) for 24 hours, the concentration of HIF-α produced in the medium was measured using Total HIF-1 α Cell-Based ELISA Kit (manufactured by R&D Systems, Inc.). Hep3B cells cultured in the absence of the compound (DMSO added [1%]) (“Control” of FIG. 5) were used as a negative control. Hep3B cells cultured in the presence of HIF activators (FG-4592 [10 μM], DMOG [10 μM], and ciclopirox[10 μM]) (“FG”, “DMOG”, and “Ciclo”, respectively, of FIG. 5) were used as positive controls.

Compound: O=C(CC(C(=O)O)c1c[nH]c2ccccc12)c1ccc(F)cc1 (stereo not drawn) [compound #4, 4-(4-Fluorophenyl)-2-(1H-indol-3-yl)-4-oxo-butanoic acid]
- effect on erythropoietin gene promoter transcriptional activity compared with HIF activator FG-4592 [1]: superior to the effect of the existing HIF activator (FG-4592)
- transcription level of the erythropoietin gene promoter [1]: increase the transcription level
- erythropoietin concentration in the mouse plasma ([2]; low concentration (5 μg/ml) and high concentration (15 μg/ml)): elevate the erythropoietin concentration
- GOT concentration in the plasma ([2]; mice): lower
- GPT concentration in the plasma ([2]; mice): lower
- cell survival rate compared with cells cultured in the absence of the compound (DMSO) ([3]; 0.5 μM compound, 24 hours): almost the same
- cell survival rate compared with cells cultured using 0.5 μM compound ([3]; 100 μM compound, 24 hours): approximately 70%
- cell survival rate compared with cells cultured using 0.5 μM compound ([3]; 1, 5, or 10 μM compound, 24 hours): rarely different
- cytotoxicity ([3]; concentration ranging from 0 to 10 μM): hardly exhibit cytotoxicity
- HIF-α concentration in the Hep3B cells [4]: increase the HIF-α concentration

Compound: O=C(CC(C(=O)O)c1c[nH]c2ccccc12)c1ccc(F)cc1F (stereo not drawn) [compound #5, 4-(2,4-Difluorophenyl)-2-(1H-indol-3-yl)-4-oxo-butanoic acid]
- effect on erythropoietin gene promoter transcriptional activity compared with HIF activator FG-4592 [1]: superior to the effect of the existing HIF activator (FG-4592)
- transcription level of the erythropoietin gene promoter [1]: increase the transcription level

Compound: O=C(O)C(CCCC(F)(F)C(F)(F)F)c1c[nH]c2ccccc12 (stereo not drawn) [compound #21, α-(4,4,5,5,5-Pentafluoro-1-pentyl)-3-indoleacetic acid]
- effect on erythropoietin gene promoter transcriptional activity compared with HIF activator FG-4592 [1]: superior to the effect of the existing HIF activator (FG-4592)
- transcription level of the erythropoietin gene promoter [1]: increase the transcription level
- HIF-α concentration in the Hep3B cells [4]: increase the HIF-α concentration
